In PubChem BioAssay (NCI) one finds TGI and GI50 data, which are given here for 18 compounds.

Among the test systems are DLD-1 colon; M19-MEL melanoma; DMS 273 small cell lung; SNB-78 CNS; KM20L2 colon; RXF-631 renal; T-47D breast; LXFL 529 NSCLC; MDA-N; SN12K1 renal; P388/ADR leukemia.
Assay in all cases: NCI tumour cell line growth inhibition, 48 h

SMILES strings stand for the structures.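 Briefly, cells in 96-well plates were exposed to five compound concentrations for 48 h, and endpoints were estimated by linear interpolation. GI50 marks 50% less growth. TGI: concentration producing complete growth inhibition.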

As to `CC1=C(/C=C/C(C)=C/C=C/C(C)=C/C=C/C=C(C)/C=C/C=C(C)/C=C/C2=C(C)C(=O)C(O)CC2(C)C)C(C)(C)CC(O)C1=O` (configuration not stated), the TGI in the test with DLD-1 colon, with M19-MEL melanoma, in the test on DMS 273 small cell lung, in the test with SNB-78 CNS, in the test on KM20L2 colon and in the test with RXF-631 renal was more than 100 µM in each case.

Take `C/C(=N\NC(=S)N1CCN(c2ccccn2)CC1)c1nccs1`: the GI50 in the test with T-47D breast was 0.855 µM. Moreover, the TGI in the test with T-47D breast came out at 22.1 µM; in the test with DLD-1 colon it was 34.4 µM; in the test with M19-MEL melanoma it was 2.34 µM; with DMS 273 small cell lung, 11.4 µM; in the test on SNB-78 CNS it was 71.4 µM; in the test on RXF-631 renal, 24.2 µM. For the same compound, the values for the TGI with LXFL 529 NSCLC and in the test on MDA-N were 22 µM and 16.6 µM, respectively.

For `COc1cc(/C=C/c2ccc(OC)c(OC)c2OC)cc(OC)c1OC`, the TGI with DLD-1 colon is more than 100 µM; in the test on M19-MEL melanoma, 51 µM; in the test with DMS 273 small cell lung, 41 µM; in the test on SNB-78 CNS, 46.4 µM; with KM20L2 colon, 55.3 µM; in the test on RXF-631 renal, 51.2 µM. This compound gave a TGI in the test on LXFL 529 NSCLC of 54.9 µM.

`Clc1ccc2ns[s+]c2c1`: the TGI with T-47D breast is 92 µM; in the test with DLD-1 colon, more than 100 µM; in the test with M19-MEL melanoma it was more than 100 µM; in the test with DMS 273 small cell lung, more than 100 µM; in the test with SNB-78 CNS it was more than 100 µM; with KM20L2 colon, more than 100 µM. Besides, the TGI in the test on LXFL 529 NSCLC and in the test on MDA-N was more than 100 µM throughout.

`COC(=O)C(CC(=O)c1c[nH]c2ccccc12)c1c[nH]c2ccccc12` (configuration not stated): the TGI is more than 100 µM with DLD-1 colon; more than 10 µM in the test with M19-MEL melanoma; 27.6 µM in the test on DMS 273 small cell lung; 58.2 µM with SNB-78 CNS; 34 µM in the test on KM20L2 colon; 31.5 µM in the test with RXF-631 renal.

For the compound `Nc1cc2[nH]cnc2c(=O)[nH]1`, the TGI in the test with T-47D breast was more than 300 µM; in the test on SN12K1 renal, more than 300 µM; in the test on DLD-1 colon, more than 300 µM; with M19-MEL melanoma, more than 300 µM; in the test with DMS 273 small cell lung, more than 146 µM; in the test on SNB-78 CNS, more than 300 µM. Moreover, the TGI in the test with KM20L2 colon, in the test on P388/ADR leukemia and with MDA-N was more than 300 µM each time.

For `COc1cc(C2c3cc4c(cc3[C@@H](OCCN(C)C)C3COC(=O)[C@H]23)OCO4)cc(OC)c1O` (some centres not stated), the TGI was 5.93 µM in the test with DLD-1 colon; 3.17 µM with M19-MEL melanoma; 0.632 µM with DMS 273 small cell lung; more than 100 µM in the test on SNB-78 CNS; 5.14 µM in the test with KM20L2 colon; 1.78 µM in the test with RXF-631 renal. The same compound showed a TGI in the test on LXFL 529 NSCLC of 31.7 µM.

Regarding `CC(/C=C/NNC1=NC(c2ccccc2)C(c2ccccc2)=NN1)Sc1ccccc1N` (configuration not stated), the TGI stood at 21.7 µM with DLD-1 colon; 28.9 µM with M19-MEL melanoma; 22.9 µM in the test on DMS 273 small cell lung; 67.9 µM with SNB-78 CNS; 23.2 µM in the test on KM20L2 colon; 38.7 µM with RXF-631 renal. Also, in the test with LXFL 529 NSCLC, the TGI is 15.5 µM.

In the case of `Nc1ccc(C(=O)CC2(O)C(=O)Nc3c(Cl)cc(Cl)cc32)cc1` (configuration not stated), the TGI in the test with DLD-1 colon is more than 100 µM; with M19-MEL melanoma, more than 100 µM; in the test with KM20L2 colon, more than 100 µM; with RXF-631 renal it was 79.8 µM; in the test on LXFL 529 NSCLC, more than 100 µM.

For the compound `COc1cc(C2c3cc4c(cc3[C@@H](N(C)C)[C@H]3COC(=O)C23)OCO4)cc(OC)c1O` (some centres not stated), the TGI in the test with DLD-1 colon is more than 100 µM; in the test on DMS 273 small cell lung, more than 100 µM; in the test on KM20L2 colon, 54.1 µM; in the test with RXF-631 renal, more than 100 µM; with LXFL 529 NSCLC it was more than 100 µM.

`COC(=O)C1Cc2c([nH]c3ccccc23)C(c2ccccc2O)N1Cc1ccccc1` (configuration not stated): the TGI in the test on DLD-1 colon was more than 100 µM; with M19-MEL melanoma it was more than 46.4 µM; in the test on DMS 273 small cell lung, more than 31.6 µM; in the test on SNB-78 CNS, more than 46.4 µM; in the test on KM20L2 colon it was more than 46.4 µM; in the test with RXF-631 renal it was 45.3 µM. In the test with LXFL 529 NSCLC, this compound displayed a TGI of 43.9 µM.

Consider `Cc1c(Cl)cccc1NC(=O)/C(Cl)=C(\Cl)C(=O)O`, for which the TGI in the test on DLD-1 colon came to 40.6 µM; in the test with M19-MEL melanoma it was 30.7 µM; in the test with DMS 273 small cell lung it was 38.4 µM; with SNB-78 CNS, 44.7 µM; in the test with KM20L2 colon, 40.9 µM; with RXF-631 renal, 56.7 µM. In the test on LXFL 529 NSCLC, this compound returned a TGI of 46.5 µM.

On to `O=c1cc(-c2ccccn2)[nH]c2cc(F)ccc12`, for which the TGI with DLD-1 colon, with M19-MEL melanoma, in the test on SNB-78 CNS, in the test on KM20L2 colon, in the test with RXF-631 renal and with LXFL 529 NSCLC was more than 100 µM throughout.

On to `COc1c(Sc2ccccc2)cc(Sc2ccccc2)c2cccnc12`, for which the TGI in the test with DLD-1 colon is more than 100 µM; with M19-MEL melanoma it was 94.9 µM; in the test on DMS 273 small cell lung it was 49.3 µM; with SNB-78 CNS it was more than 100 µM; in the test on KM20L2 colon it was 50.2 µM; with RXF-631 renal it was more than 100 µM. For the same compound, the TGI in the test with LXFL 529 NSCLC was more than 100 µM.

For the compound `CN1C(=O)C2C=CC1C1CCC2N(C)C1=O` (configuration not stated), the TGI with DLD-1 colon, in the test on M19-MEL melanoma, in the test on DMS 273 small cell lung, in the test with SNB-78 CNS, in the test with RXF-631 renal and with LXFL 529 NSCLC was more than 100 µM in each case.

Turning to `COC(=O)c1ccc(C(=O)OC)c2nc3cc(C)ccc3nc12`, the TGI with DLD-1 colon, with DMS 273 small cell lung, in the test with SNB-78 CNS, in the test with KM20L2 colon, with RXF-631 renal and in the test with LXFL 529 NSCLC was more than 100 µM throughout.

For the compound `Clc1ccc2c(c1)[nH]c1c2nc2sccn21`, the TGI in the test with DLD-1 colon, with M19-MEL melanoma, with DMS 273 small cell lung, in the test on SNB-78 CNS, with KM20L2 colon and in the test with RXF-631 renal was more than 100 µM throughout. Further, the TGI in the test on LXFL 529 NSCLC is more than 100 µM.

On to `ClCc1ccc(C2OCCO2)cc1`, for which the TGI with DLD-1 colon is 34.3 µM; in the test on M19-MEL melanoma, 37.8 µM; in the test on DMS 273 small cell lung, 45.3 µM; in the test on SNB-78 CNS, more than 31.6 µM; in the test on KM20L2 colon, more than 69 µM; with RXF-631 renal, more than 100 µM. Also, the TGI in the test on LXFL 529 NSCLC worked out at 37.2 µM.
